One assay relates to BIN2-HA protein. The assay can be described thus: BL treatment assay, BIN2-HA protein amount by IP/Western analysis. The assay is classed as in vivo, Arabidopsis thaliana. How it is done: Seedlings from 1-week-old plants were harvested and ground to powder in N2 and mixed with the extraction buffer containing 50 mM Tris-Cl (pH 7.5), 100 mM NaCl, 10 mM MgCl2, 1 mM EDTA, 10% glycerol 0.1% NP-40, 1 mM phenymethylsulfonyl fluoride (PMSF), and 1× protease inhibitor cocktail (GenDEPOT) 20 min at 4° C.
The IP experiments were performed using HA Tag IP/Co-IP Kit according to the manufacturer's protocol (Thermo Pierce).
The supernatant was incubated with prewashed anti-HA agarose beads for 4 h at 4° C. with gentle shaking. The beads were collected and washed three times with TBS plus 0.05% Tween-20 detergent (TBST), and dissolved in 2×SDS sample buffer. The proteins were separated by 10% SDS-PAGE, and Anti-HA (1:2,000, AbCam #9110) antibody was used to detect BIN2-HA.
[…] The seedlings were transferred to liquid 1/2 MS medium with 1% sucrose containing various concentrations of BL (24-epibrassinolide, Sigma #E1641), and incubated for the indicated times before being removed for Western analysis.
To investigate the BL-Induced BIN2 degradation, BRZ (Sekimata et al., 2001) treated seedlings were incubated in liquid 1/2 MS medium containing 1 μM BL and/or 20 μM MG132 (Sigma), a specific 26S proteasome inhibitor (Rock et al., 1994) for 30 min.

For assay [1], the system named is BIN2-HA transgenic seedlings. The assay is described as follows: Phenotype of BIN2-HA transgenic seedlings on BRZ / BL medium. The format is in vivo, Arabidopsis thaliana. How it is done: (§1) Arabidopsis seeds were sterilized and germinated on agar-solidified 1/2 Murashige and Skoog (MS, Duchefa #M0222) with 1% sucrose. After stratification at 4° C. for 3 days, the wild type and mutant plants were grown under a photoperiod of a long day condition (16 h light/8 h dark) at 23° C. Seeds of various transgenic lines were germinated on Murashige and Skoog medium (1/2 MS) with 2 μM BRZ (Sigma), a BR biosynthesis inhibitor, and grown under a long day condition at 23° C. for 1 week. The seedlings were transferred to liquid 1/2 MS medium with 1% sucrose containing various concentrations of BL (24-epibrassinolide, Sigma #E1641), and incubated for the indicated times before being removed for Western analysis. To confirm whether the amount of BIN2 is affected by the BRs level, we grew BIN2-HA line and a bin2-6D-HA line on medium containing 2 μM BRZ for 2 weeks and then transferred them to liquid medium with 1 μM epi-BL for 2 to 8 days.

In assay [2] the test system is bin2-6D-HA transgenic seedlings. The assay is described as follows: Phenotype of bin2-6D-HA transgenic seedlings on BL medium. The format is in vivo, Arabidopsis thaliana. The settings on record: 1 μM BL-containing medium for 0, 2, 4 and 8 d. How it is done:
as §1

Assay [3] deals with BIN2. The assay is described as follows: Immunoprecipitation combined with LC/MALDI-TOF/MS of BIN2-interacting proteins. The format is binding, Arabidopsis thaliana. The settings on record: BL-treated transgenic seedlings, anti-HA IP. As for the experimental part: Seeds of transgenic lines, BIN2-HA, bin2-6D-HA, and BIN2KD-HA, were germinated on agar-solidified 1/2 MS with 1% sucrose supplemented with 1 μM BRZ and grown under a long day condition at 23° C. for 2 week. The seedlings were transferred them to liquid medium (1/2 MS with 1% sucrose) with 1 μM BL, and incubated for 30 min. These seedlings were ground to powder in liquid nitrogen and solubilized with protein extraction buffer containing 50 mM Tris-Cl (pH 7.5), 100 mM NaCl, 10 mM MgCl2, 1 mM EDTA, 10% glycerol 0.1% NP-40, 1 mM PMSF, and 1× Protease inhibitor cocktail (GenDEPOT). The extracts were centrifuged at 20,000×g for 20 min, and the resulting supernatants were collected and incubated with pretreated anti-HA agarose bead (Thermo Pierce) at 4° C. After incubation, the agarose beads were collected by centrifugation at 800×g for 30 sec and washed three times with extraction buffer. Immunoprecipitation (IP) complex was eluted by elution buffer containing 50 mM Tris-HCl (pH 7.5), 50 mM DTT, 1 mM EDTA, 10% glycerol, 1% SDS, and 0.01% bromophenol blue, and then separated in a 10% SDS-PAGE gel, and immunoblot analysis. […] The gel lane with separated bin2-6D-HA proteins was cut into a single slices, and then in-gel tryptic digestion and peptide desalting, the extracted peptides were analyzed by MALDI-TOF mass spectrometry on an Ultraflex III TOF/TOF (Bruker Daltonics, Germany). […]

In assay [4] the target is T1, BIN2 (Arabidopsis thaliana, UniProt Q39011).
T1 construct: the full-length cDNA fragments of BIN2 and BRF1 were PCR amplified with specific primers; expressed in transfected cells; host or cells: yeast strain AH109
T1 sequence (Q39011 1-380): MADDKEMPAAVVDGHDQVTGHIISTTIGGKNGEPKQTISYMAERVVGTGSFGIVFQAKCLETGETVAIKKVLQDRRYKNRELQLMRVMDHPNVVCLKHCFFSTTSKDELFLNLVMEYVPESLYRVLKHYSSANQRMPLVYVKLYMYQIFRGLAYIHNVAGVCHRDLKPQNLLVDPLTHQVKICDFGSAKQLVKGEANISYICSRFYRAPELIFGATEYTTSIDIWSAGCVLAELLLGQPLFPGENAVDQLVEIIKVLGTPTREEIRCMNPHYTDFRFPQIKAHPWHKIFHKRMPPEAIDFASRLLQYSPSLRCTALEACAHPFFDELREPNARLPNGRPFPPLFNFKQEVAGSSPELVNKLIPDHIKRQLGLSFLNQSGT
The assay is described as follows: Yeast two-hybrid assay of the BIN2-BRF1 interaction. The format is binding. As to conditions: SD/-L-T-H medium with 1.5 mM 3-AT. As for the experimental part:
Yeast two-hybrid assay was conducted following the Matchmaker Gold Yeast Two-Hybrid System manufacturer's protocol (Clontech) for testing the BIN2 and BRF1 interaction.
To make the yeast two-hybrid assay constructs, the full-length cDNA fragments of BIN2 and BRF1 were PCR amplified with specific primers, BIN2-F and BIN2-R, BRF1-NdeI-F and BRF1-EcoRI-R, respectively. The PCR products BIN2 and BRF1 were ligated to the prey pGADT7 vector (AD vector) and the bait pGBKT7 vector (DBD vector), respectively. These prey and bait vectors were transformed into the yeast strain AH109, and yeast was grown on SD/-Trp/-Leu medium for 3 days. Transformants were selected on SD/Leu-/Trp- and SD/Leu-/Trp-/His-/1.5 mM 3-amino-1,2,4-triazole (3-AT, Sigma) medium. Empty vectors were used as the negative control.
Yeast two-hybrid analysis performed using primers BIN2-NdeI-F (5′-[…]-3′), BIN2-EcoRI-R (5′-[…]-3′), BRF1-NdeI-F (5′-[…]-3′), BRF1-EcoRI-R (5′-[…]-3′), (NdeI and EcoRI sites are underlined) (SEQ ID NOs: 48-51)

Residues, ends and D or L forms follow the SMILES beside them. *: point of attachment. Cbz = O=C(OCc1ccccc1)*

Regarding `CC(C)[C@@H](C)[C@@H](O)[C@H](O)[C@@H](C)[C@H]1CC[C@H]2[C@@H]3COC(=O)[C@H]4C[C@H](O)[C@H](O)C[C@]4(C)[C@H]3CC[C@]12C` [BL, 24-epibrassinolide], the “time within which BRZ-stabilized BIN2-HA protein decreased by BL treatment” value with BIN2-HA protein (BRZ-grown BIN2-HA seedlings transferred to BL liquid medium, Western) was 10 to 30 min. For the same molecule, the “phenotypic response of BIN2-HA transgenic line to BL treatment” value in assay [1] (1 μM BL-containing medium for 0, 2, 4 and 8 d) is recorded as “responds”. Moreover, the “phenotypic response of dwarfed bin2-6D-HA line to BL treatment” value in assay [2] is on record as “BL-insensitive”. For `CC(O)(c1ccccc1)C(Cc1ccc(Cl)cc1)n1cncn1` (stereo not drawn) [BRZ], the “effect of exogenous application on BIN2 protein” value with BIN2-HA protein (exogenous application of BRZ) is “increased”. The “effect of BRZ treatment on bin2 phenotype of BIN2-HA seedling” value in assay [1] (2 μM BRZ medium for 2 weeks) was “enhanced”. Take `CC(C)C[C@@H](C=O)NC(=O)[C@H](CC(C)C)NC(=O)[C@H](CC(C)C)NC(=O)OCc1ccccc1` [MG132] (Cbz-Leu-Leu-Leu-aldehyde): the “effect on BL-induced BIN2 disappearance” value in the assay with BIN2-HA protein (BIN2-HA seedlings, 1 μM BRZ 2 weeks, then 1 μM BL and/or 20 μM MG132, 30 min, IP/Western) was “effectively blocked”.

B1: BRF1: Arabidopsis F-box E3 ligase protein encoded by At5g62970, SEQ ID NO: 2 (protein, listed as Arabidopsis sp.)
chain: MDKISGFSDDELLVKILSFLPFKFAITTSVLSKQWKFLWMRVPKLEYDEDSMYSFEYSFRYFLPKAKEVDSETYSIVSESGHRMRSFIEKNLPLHSSPVIESLRLKFFTEVFQPEDIKLWVEIAVSRCAQELSVDFFPKEKHNALLPRNLYTCKSLVTLKLRNNILVDVPHVFSLPSLKILHLERVTYGDGESLQRLLSNCSVLEDLVVELDTGDNVRKLDVIIPSLLSLSFGMSRYCAYEGYRIDTPSLKYFKLTDLSKTFSGLIENMPKLEEANITARHNFKKLLELVTSVKRLSLNIENNDAEALTAIYGDDIVFNELEHLNFHIHNAYWSELLYWLLKASPKLQNLEFDEQCSRDGTMGTLAVFWNQPNSVPQCLLSTLQTFEWSGYPGSVQGKDLATYILRKSRQLKIATISIGYGLDPQQKLKMEMDVKFSFRASPTCKRVFY
As to B1, in the assay on BIN2 [3], the “identification as BIN2-interacting protein by IP combined LC/MALDI-TOF/MS” value was “BIN2-interacting protein”. Moreover, the “interaction with BIN2 in yeast two-hybrid assay” value with BIN2 [4] is reported as “specially interacted”.

B2: BRF2: Arabidopsis F-box E3 ligase protein encoded by At5g56690, SEQ ID NO: 4 (protein, listed as Arabidopsis sp.)
chain: MAEISGLPDDLLVKILAFLPTKVAISTSVLSKQWRFLWMWLPKLKYDDYDDITDGFNSVSAFQTYRDFIAKNLPLHRAPIIESLSLGFRCGTLQPEDLKSWVEVAVSRSVRELSILAYYRNNYALSSSSLYTCKSLVTLKGFNIRVDVPPTVCLLPSLRTLELKRVRYLNEDSLRMLLSFCPVLEYLSIERHDNDNLRGLVVDVPSLRRLSLTSYTGCSSDDYVIVTPSLKYFKAFDYRSEISSYKIEKIPELEEADISIERNPEKLFVYFKSIKCLSLQVDFNSKEEPGYDSGIVFNHLEELTPYINDANWSKLLFRLLNDSPKLRVLEISNSKSFYKEKIGEYLPVSWSKNQGSVPKCFLNSLETFRVKWYYSEEQEDRDFLSLIFKHARCLKSTSILHR
Consider B2, for which the “identification as BIN2-interacting protein by IP combined LC/MALDI-TOF/MS” value in the assay on BIN2 [3] was “BIN2-interacting protein”.

The values are drawn from patent US20190135879A1, “GENE REGULATING BIN2 FUNCTION AND TRANSGENIC PLANT TRANSFORMED BY THE GENE” (SEOUL NATIONAL UNIVERSITY R&DB FOUNDATION, priority 2016, published 2019).
